For 1 compound, IC50 results are on record in BindingDB's records for patent US11827644 (Suzhou Genhouse Pharmaceutical, 2023).

The IC50 is the concentration that inhibits the measured activity by half. Higher therefore signals lower potency.

For the assay, the target named is T1, Tyrosine-protein phosphatase non-receptor type 11 (Homo sapiens, UniProt Q06124).
T1 sequence (Q06124 whole entry): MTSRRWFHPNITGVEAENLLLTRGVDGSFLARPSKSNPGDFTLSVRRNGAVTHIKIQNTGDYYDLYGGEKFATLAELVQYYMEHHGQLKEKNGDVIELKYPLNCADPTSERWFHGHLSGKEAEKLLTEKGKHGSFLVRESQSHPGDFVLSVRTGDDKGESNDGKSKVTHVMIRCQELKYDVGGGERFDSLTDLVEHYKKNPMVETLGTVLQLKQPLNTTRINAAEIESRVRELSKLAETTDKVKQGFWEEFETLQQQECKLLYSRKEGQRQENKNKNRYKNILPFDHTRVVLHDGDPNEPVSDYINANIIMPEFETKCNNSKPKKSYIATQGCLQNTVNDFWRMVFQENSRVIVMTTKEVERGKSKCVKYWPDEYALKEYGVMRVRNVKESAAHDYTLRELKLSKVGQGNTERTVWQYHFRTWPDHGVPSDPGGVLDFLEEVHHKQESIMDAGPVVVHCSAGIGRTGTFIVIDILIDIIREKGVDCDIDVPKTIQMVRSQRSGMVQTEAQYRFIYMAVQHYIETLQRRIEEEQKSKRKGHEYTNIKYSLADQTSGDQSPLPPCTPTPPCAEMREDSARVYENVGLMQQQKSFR
The experiment in a line: SHP2 Allosteric Inhibition Assay. As for the experimental part:
The phosphatase reaction was conducted in 384-well black polystyrene plates (Corning, Cat #3575) with flat bottom, low edge and non-binding surface at room temperature and 25 μl final volume of the following buffer condition: 60 mM HEPES, pH 7.2, 75 mM NaCl, 75 mM KCl, 1 mM EDTA, 0.05% P-20, 5 mM DTT.The following experiments were conducted to monitor the SHP2 inhibition by the compounds (at concentrations of 0.0003-100 μM) in this invention:Wherein, incubate 0.5 nM SHP2 with 0.5 μM peptide IRS1_pY1172 (dPEG8) pY1222 (sequence: H2N-LN (pY) IDLDLV (dPEG8) LST (pY) ASINFQK-amide) (SEQ ID NO: 1) (WO2016/203406A1). After incubation at 25° C. for 30-60 minutes, the alternative substrate DiFMUP (Invitrogen, cat #D6567) was added to the reaction and incubated at 25° C. for 30 minutes. The reaction was then […] by adding 5 μL of a 160 μM bpV (Phen) solution (Enzo Life Sciences cat #ALX-270-204). The fluorescence signal was monitored using a microplate reader (VARIOSKAN LUX, Thermo) with excitation and emission wavelengths of 340 nm and 450 nm, respectively. The inhibitory dose-response curve is analyzed using a standardized IC50 regression curve based on control-based normalization.

Regarding `C[C@@H]1OCC2(CCN(c3cnc(Sc4cccc(-c5cscn5)c4Cl)cn3)CC2)[C@@H]1N` [US11827644, Example 33], the IC50 was 2.62 nM. This lies in the single-digit nanomolar range.
